In patent EP0899270B1, “Indolylmethyl-N,N'-bisacylpiperazines as neurokinine receptor antagonists” (Solvay Pharmaceuticals GmbH, priority 1997, dated 1999):
Read-outs that look alike come from different tables or passages of the source.

Assays:
[1] = test system: durch Substanz P induzierter Blutdrucksenkung; assay: Substance P antagonistic effect in vivo (Substanz P induced hypotension in guinea pigs); design: species or system Meerschweinchen; details: Cavia porcellus, 1 h, 50 pmol Substanz P i.v., evaluated after 60 minutes, read-out: ED50 (50%ige Hemmung der Substanz P-induzierten Blutdrucksenkung)
From the text: 4. Bestimmung der Substanz-P-antagonistischen Wirkung der Testsubstanzen in vivo.
Zum Nachweis der Substanz-P-antagonistischen Wirkung der Testsubstanzen wurde als Standardtestmodell für Substanz-P-induzierte pharmakologische Effekte die durch Substanz-P-Applikation hervorgerufene Hypotension in Meerschweinchen verwendet. Es wurde die Hemmwirkung der Testsubstanzen gegenüber durch Substanz P induzierter Blutdrucksenkung nach intravenöser (= i.v.) und intraduodenaler (= i.d.) Applikation der Testsubstanzen bestimmt.
Männlichen Meerschweinchen werden in Narkose (Ketamin 67 mg/ kg, Xylazine 13 mg/kg) jeweils ein Katheter in eine Arteria Carotis Communis und in eine Vena Jugularis implantiert. Der arterielle Katheter dient zur Blutdruckmessung. Die Messung erfolgt mit einem Statham 23d/B Druckaufnehmer. Über den venösen Zugang erfolgt die Gabe von Substanz P bzw. bei intravenöser Gabe auch die Applikation der Testsubstanz. Nach einer Äquilibrierungsphase von 20 Minuten werden 50 pmol/Tier Substanz P als Bolus i.v. appliziert. Danach erfolgt die Gabe der Testsubstanz. Bei der i.v. Untersuchung wird die Testsubstanz in Dosierungen von 0.1, 0.46 bzw. 1.0 µmol/kg einer Gruppe von jeweils 4 bis 6 Tieren intravenös appliziert. Die Kontrollgruppe erhält die entsprechende Menge einer physiologischen Kochsalzlösung. […]

humanen NK-2-Rezeptoren = target: T1, humanen NK-2-Rezeptoren (Homo sapiens, UniProt P21452); assay: Binding of test substances to NK-2 receptors in vitro (SR 48,968 displacement, CHO cell membranes); details: SR 48,968 as ligand; membranes of CHO cells expressing human NK-2 receptor; read-out: Ki (Affinität der Testsubstanzen zu humanen NK-2-Rezeptoren)
T1 sequence (P21452 1-398): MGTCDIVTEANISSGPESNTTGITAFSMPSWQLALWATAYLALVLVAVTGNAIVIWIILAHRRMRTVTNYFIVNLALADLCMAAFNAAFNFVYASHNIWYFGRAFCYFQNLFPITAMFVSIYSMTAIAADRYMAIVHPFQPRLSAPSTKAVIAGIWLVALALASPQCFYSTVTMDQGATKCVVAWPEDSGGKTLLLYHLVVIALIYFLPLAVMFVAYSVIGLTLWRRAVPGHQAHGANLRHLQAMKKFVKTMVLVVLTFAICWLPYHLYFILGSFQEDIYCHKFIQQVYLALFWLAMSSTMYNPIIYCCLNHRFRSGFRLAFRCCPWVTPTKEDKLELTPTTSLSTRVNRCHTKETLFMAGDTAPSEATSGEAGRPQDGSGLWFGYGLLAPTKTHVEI
From the text: 2. Bestimmung des Bindungsvermögens der Testsubstanzen an NK-2-Rezeptoren in vitro
Die Affinität der Testsubstanzen zu humanen NK-2-Rezeptoren wird in vitro gemessen. Bestimmt wird die Hemmung der Bindung der Verbindung SR-48,968 an NK-2-Rezeptoren. SR-48,968 ist eine als spezifischer NK-2-Antagonist bekannte synthetisch hergestellte Verbindung.
Die Rezeptor-Bindungsstudien werden mit SR 48,968 als Ligand durchgeführt. Die Versuchsdurchführung entspricht der im pharmakologischen Test zur Bestimmung des Bindungsvermögens der Testsubstanzen an NK-1-Rezeptoren in vitro angegebenen Methode. Im Unterschied hierzu werden nunmehr aber verschiedene Proben einer Membranpräparation von CHO-Zellen verwendet, welche den humanen NK-2-Rezeptor exprimieren. In diesem Testmodell zeigten die in der folgenden Tabelle 1 aufgeführten Beispielsubstanzen die angegebenen Ki-Werte für die Affinität zu humanen NK-2-Rezeptoren: Tabelle 1: Affinität der Testsubstanzen zu humanen NK-2-Rezeptoren

humanen NK-1-Rezeptoren = target: T2, humanen NK-1-Rezeptoren (Homo sapiens, UniProt P25103); assay: Binding of test substances to NK-1 receptors in vitro ([3H]-Substanz P displacement, CHO cell membranes); details: [3H]-Substanz P as ligand; membranes of CHO cells expressing human NK-1 receptor; Ki calculated from IC50; read-out: Ki-Wert für die Affinität zu humanen NK-1-Rezeptoren
T2 construct: expressed in transfected cells; host or cells: CHO cells (membrane preparation)
From the text: 1. Bestimmung des Bindungsvermögens der Testsubstanzen an NK-1-Rezeptoren in vitro.
Die Affinität der Testsubstanzen zu humanen NK-1-Rezeptoren wird in vitro gemessen. Bestimmt wird die Hemmung der Bindung des physiologischen Neurokinins (Substanz P) an Neurokinin-1-Rezeptoren.
Die Rezeptor-Bindungsstudien werden mit [^3H]-Substanz P als Ligand durchgeführt. Für den Bindungsversuch werden verschiedene Proben einer Membranpräparation von CHO-Zellen (= […] des chinesischen Hamsters, […]), die den humanen NK-1-Rezeptor exprimieren, mit einer Lösung des markierten Liganden inkubiert, wobei die Inkubationsansätze keine Testsubstanz oder Zusätze unterschiedlicher Konzentrationen an Testsubstanz enthalten. Anschließend wird in den Proben jeweils eine Trennung von gebundenem und freiem Liganden mit Hilfe einer Glasfiber-Filtration vorgenommen. Die im Filter verbleibende Fraktion wird mehrmals mit Pufferlösung gewaschen und anschließend wird die Radioaktivität der im Filter verbliebenen Fraktion mit einem Beta-Scintillationszähler gemessen. Es wird als IC50 der jeweiligen Testsubstanz diejenige Konzentration bestimmt, welche eine halbmaximale Verdrängung des gebundenen Liganden bewirkt. Aus dieser wird die entsprechende Inhibitionskonstante (Ki-Wert) der Testsubstanz berechnet. […]

NK-1-Rezeptor = target: T3, NK-1-Rezeptor (Cavia porcellus, UniProt P30547); assay: Functional NK-1 antagonism on isolated guinea pig aorta rings in vitro (inhibition of Substanz P induced tone relaxation); design: species or system Pirbright-White Meerschweinchen; details: aorta rings toned with Phenylephrin, stimulated with 0,01 µmol Substanz P; read-out: IC50 (halbmaximale Hemmung der Tonusrelaxation)
T3 construct: Ringpräparaten der Aorta von Pirbright-White Meerschweinchen; from tissue; host or cells: isolated aorta rings of Pirbright-White guinea pigs
From the text: 3. Bestimmung des funktionellen NK-1-Antagonismus der Testsubstanzen an isoliertem Gewebe vom Meerschweinchen in vitro
Die NK-1-Rezeptor-antagonisierende Wirkung der Testsubstanzen wurde an isolierten, in einer oxygenierten Nährlösung gehaltenen Ringpräparaten der Aorta von Pirbright-White Meerschweinchen in vitro gemessen. Bestimmt wird die Hemmung der nach Stimulierung mit dem NK-1-Agonisten Substanz P hervorgerufenen Tonusrelaxation der Aortapräparate durch die Testsubstanzen.
Zur Messung der Kontraktion der Gefäßmuskulatur werden die Präparate an einem Haken fixiert, durch einen Faden mit einem Kraftmessungsgerät verbunden und die Kontraktionen werden jeweils an einem Schreiber registriert. Die Aortapräparate werden mit Phenylephrin tonisiert. Anschließend werden die NK-1-Rezeptoren der Präparate vor und nach der Gabe der Prüfsubstanz mit 0,01 µmol Substanz P stimuliert, wodurch eine Relaxation des Tonus herbeigeführt wird. Die Relaxationen vor und nach Gabe der Prüfsubstanz werden in Prozent quantifiziert. Als Kenngröße wird die Konzentration der halbmaximalen Hemmung (= IC50) errechnet, welche diejenige Konzentration angibt, bei der eine halbmaximale Hemmung der Tonusrelaxation eintritt.
In diesem Testmodell zeigten die in der folgenden Tabelle 2 aufgeführten Beispielsubstanzen die angegebenen IC50-Werte für die halbmaximale Hemmung : Tabelle 2: Funktioneller NK-1-Antagonismus der Testsubstanzen an isoliertem Meerschweinchen-Gewebe

T3 sequence (P30547 whole entry): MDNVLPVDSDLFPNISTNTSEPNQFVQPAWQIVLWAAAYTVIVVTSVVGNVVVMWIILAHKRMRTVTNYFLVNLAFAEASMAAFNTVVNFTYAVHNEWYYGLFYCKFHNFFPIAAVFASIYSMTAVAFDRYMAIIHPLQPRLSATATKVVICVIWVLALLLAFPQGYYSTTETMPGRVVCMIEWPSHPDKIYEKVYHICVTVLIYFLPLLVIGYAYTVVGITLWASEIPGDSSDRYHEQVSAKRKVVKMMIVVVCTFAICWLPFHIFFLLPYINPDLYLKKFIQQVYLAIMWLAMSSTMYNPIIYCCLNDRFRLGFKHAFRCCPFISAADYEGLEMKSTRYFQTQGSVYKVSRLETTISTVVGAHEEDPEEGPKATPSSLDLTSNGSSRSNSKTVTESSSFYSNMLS
T2 sequence (P25103 whole entry): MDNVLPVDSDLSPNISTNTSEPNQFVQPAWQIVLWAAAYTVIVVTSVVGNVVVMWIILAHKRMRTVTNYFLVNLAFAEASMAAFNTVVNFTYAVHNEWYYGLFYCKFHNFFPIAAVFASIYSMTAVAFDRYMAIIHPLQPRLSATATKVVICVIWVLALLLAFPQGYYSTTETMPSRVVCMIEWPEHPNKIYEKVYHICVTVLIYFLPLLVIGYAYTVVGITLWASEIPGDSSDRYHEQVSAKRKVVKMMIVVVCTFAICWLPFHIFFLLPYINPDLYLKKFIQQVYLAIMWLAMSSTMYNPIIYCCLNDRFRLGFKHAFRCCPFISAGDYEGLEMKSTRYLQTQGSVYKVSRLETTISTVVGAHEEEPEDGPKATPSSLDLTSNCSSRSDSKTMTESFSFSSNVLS

Ki (humanen NK-2-Rezeptoren) [nM]	IC50 (NK-1-Rezeptor) [nM]	Compound	ED50 ([1]; i.d.-Applikation) [µmol/kg]	ED50 ([1]; iv, i.v.-Applikation) [µmol/kg]	Ki (humanen NK-1-Rezeptoren) [nM]
50	1.2	COc1ccccc1CN(C)CCNC(=O)N1CCN(C(=O)c2cc(C(F)(F)F)cc(C(F)(F)F)c2)C(Cc2c[nH]c3ccccc23)C1 (stereo not drawn) [Beispiel 2]			
300	1.5	O=C(NCCNCc1ccc(F)cc1)N1CCN(C(=O)c2cc(C(F)(F)F)cc(C(F)(F)F)c2)C(Cc2c[nH]c3ccccc23)C1 (stereo not drawn) [Beispiel 3]			

Compound	Ki (humanen NK-2-Rezeptoren) [nM]	IC50 (NK-1-Rezeptor) [nM]	ED50 ([1]; i.d.-Applikation) [µmol/kg]	ED50 ([1]; iv, i.v.-Applikation) [µmol/kg]	Ki (humanen NK-1-Rezeptoren) [nM]
COc1ccccc1CNCCNC(=O)N1CCN(C(=O)c2cc(C(F)(F)F)cc(C(F)(F)F)c2)[C@H](Cc2c[nH]c3ccccc23)C1 [Beispiel 1, (2R)-1-[3,5-Bis(trifluormethyl)benzoyl]-2-(1H-indol-3-ylmethyl)-4-(2-[N-(2-methoxybenzyl)aminoethyl]aminocarbonyl}piperazin]	60	1	0.08	0.2	2.1
